Reference: patent US9958439B2, “Carbohydrate detection” (RICHTER LIFE SCIENCE DEVELOPMENT AB, priority 2012, dated 2018)
Like-named read-outs stand apart in the source and are kept apart here.

Columns and labels:
[1] = Method: (§1) The excitation spectrum of the probe was analyzed for wavelengths 300-500 nm with emission read at 545 nm.
(§2) 3 μM of each probe was applied to serial two fold dilutions of the carbohydrate. Respective probes were excited at wavelengths unique to each probe (specified in figure), and emission was read at 545 nm.
(§3) Serial dilutions of carbohydrate suspensions were prepared in dH2O. Concentrations ranging from 10 to 0.039 mg/ml was used for β-1,3-glucan, cellulose and chitin, whereas 5 to 0.019 mg/ml was used for sodium alginate, glucose, amylose, glycogen, cellulobiose, heparin, chondroitin sulfate A. 3 μM of each LCO probe was added to 1 ml aliquots of each concentration of carbohydrate, after which 100 μl was dispensed in triplicates into 96 well plates. Excitation spectra were collected by exciting the sample from 300 to 500 nm and detecting emission at 545 nm. Detection of carbohydrate is concluded when there is a reproducible change in λmax and/or RFU intensity with reference to the negative control. Data from three concentrations, as well as the negative control are shown for each carbohydrate as specified in respective figure.
(§4) The excitation wavelength (emission detected at 545 nm) selected for each LCO is either (1) the λmax, or (2) the excitation wavelength which suffers the lowest background. A linear regression analysis is performed to determine the relationship between the carbohydrate concentration and RFU.

[2] = for RFU change (Correlation analysis): probe-specific excitation λ, emission 545 nm; for carbohydrate can be detected and/or differentiated by the LCO: conclusion from change in signal magnitude and/or shift in λmax
Method: as §1
(§5) 3 μM of each probe was applied to serial two fold dilutions of the insoluble carbohydrate. Respective probes were excited at wavelengths unique to each probe (specified in figure), and emission was read at 545 nm.
as §3, §4

[3] = for RFU change (Correlation analysis): probe-specific excitation λ, emission 545 nm; for carbohydrate can be detected and/or differentiated by the LCO: conclusion from change in signal magnitude and/or shift in λmax; remark: listed apart in the source
Method: (§6) 3 μM of each probe was applied to serial two fold dilutions of the carbohydrate of which the concentration shown here are 5 mg/ml (_.), 2.5 mg/ml (. . . ) 1.25 mg/ml (__) and 0 mg/ml (_). The excitation spectrum of the probe was analyzed for wavelengths 300-500 nm with emission read at 545 nm.
as §2, §3, §4

[4] = remark: listed apart in the source
Method: as §6
3 μM of each probe was applied to serial two fold dilutions of the carbohydrate. Respective probes were excited at wavelengths unique to each probe (specified in figure), and emission was read at 545 nm. […] The mean increase in signal (_) with [Glucose] and the fitted regression line (__) is shown.
as §3, §4

[5] = remark: listed apart in the source
Method: as §6, with “of the insoluble carbohydrate of” for “of the carbohydrate of”, “. . ), 1.25 mg/ml” for “. . ) 1.25 mg/ml”
as §5, §3, §4

[6] = for RFU change (Correlation analysis): probe-specific excitation λ, emission 545 nm; for carbohydrate can be detected and/or differentiated by the LCO: conclusion from change in signal magnitude and/or shift in λmax; for Gradient Parameters (gradient of regression line) / Linear relationship / Quality of Gradient: linear regression
Method: 3 μM of each probe was applied to serial two fold dilutions of the carbohydrate of which the concentration shown here are 5 mg/ml (_.), 2.5 mg/ml (. . . ), 1.25 mg/ml (__) and 0 mg/ml (_). The excitation spectrum of the probe was analyzed for wavelengths 300-500 nm with emission read at 545 nm.
as §2, §3, §4

[7] = Chondroitin Sulfate A 5-0.019 mg/ml, 3 μM probe, spectral analysis, Excitation 300-500, Emission 545
[8] = Chondroitin Sulfate A concentration vs RFU, linear regression
[9] = Chitin 10-[…], 3 μM probe, spectral analysis, Excitation 300-500, Emission 545
[10] = cellulose concentration vs RFU, linear regression
[11] = chitin concentration vs RFU, linear regression
[12] = β-1,3-glucan concentration vs RFU, linear regression
[13] = Cellulobiose 5-0.019 mg/ml, 3 μM probe, spectral analysis, Excitation 300-500, Emission 545
[14] = amylose concentration vs RFU, linear regression
[15] = cellulobiose concentration vs RFU, linear regression
[16] = glucose concentration vs RFU, linear regression
[17] = sodium alginate concentration vs RFU, linear regression
[18] = Glycogen 5-0.019 mg/ml, 3 μM probe, spectral analysis, Excitation 300-500, Emission 545

O=C([O-])CC[C@H](NC(=O)Cc1cc(-c2cccs2)sc1-c1ccc(-c2sc(-c3cccs3)cc2CC(=O)N[C@@H](CCC(=O)[O-])C(=O)[O-])s1)C(=O)[O-].[Na+].[Na+].[Na+].[Na+] [pHTA-Glu, penta Hydrogen Thiophene Acetic acid Glutamic acid]
RFU change (Correlation analysis) ([1]; Chondroitin Sulfate A 5-0.019 mg/ml, 3 μM probe, probe-specific excitation λ, emission 545 nm): Unclear
RFU change (Signal deviation with increasing [Carbohydrate]) [1, 7]: Decreases
λmax change [1, 7]: No change
Gradient Parameters (gradient of regression line) [1, 8]: 125.3 ± 156.5
Quality of Gradient [1, 8]: Horizontal
Sensitivity ([1]; to Chondroitin Sulfate A): No
RFU change (Correlation analysis) ([2]; Cellulose 10-[…], 3 μM probe): Decrease
RFU change (Signal deviation with increasing [Carbohydrate]) ([2]; Cellulose 10-[…], 3 μM probe, spectral analysis, Excitation 300-500, Emission 545): Unclear
RFU change (Correlation analysis) ([2]; Chitin 10-[…], 3 μM probe): Increases
RFU change (Signal deviation with increasing [Carbohydrate]) [2, 9]: Increases
λmax change [2, 9]: Redshift
carbohydrate can be detected and/or differentiated by the LCO ([2]; Chitin): can be detected and/or differentiated
Gradient Parameters (gradient of regression line) [2, 10]: −139.6 ± 344.8
Quality of Gradient [2, 10]: Horizontal
Gradient Parameters (gradient of regression line) [2, 11]: 2824 ± 156.6
Linear relationship [2, 11]: Significant
Quality of Gradient [2, 11]: Positive
Sensitivity ([2]; to cellulose): No
Sensitivity ([2]; to chitin): Yes
Sensitivity ([2]; to β-1,3-glucan): Yes
carbohydrate can be detected and/or differentiated by the LCO ([2]; β-1,3-Glucan): can be detected and/or differentiated
RFU change (Correlation analysis) ([2]; β-1,3-glucan 10-[…], 3 μM probe): Decrease
RFU change (Signal deviation with increasing [Carbohydrate]) ([2]; β-1,3-glucan 10-[…], 3 μM probe, spectral analysis, Excitation 300-500, Emission 545): Decrease
Gradient Parameters (gradient of regression line) [2, 12]: −898.7 ± 117.0
Quality of Gradient [2, 12]: Negative
RFU change (Correlation analysis) ([3]; Amylose 5-0.019 mg/ml, 3 μM probe): Increases
RFU change (Signal deviation with increasing [Carbohydrate]) ([3]; Amylose 5-0.019 mg/ml, 3 μM probe, spectral analysis, Excitation 300-500, Emission 545): Increases
carbohydrate can be detected and/or differentiated by the LCO ([3]; Amylose): can be detected and/or differentiated
RFU change (Correlation analysis) ([3]; Cellulobiose 5-0.019 mg/ml, 3 μM probe): Increases
RFU change (Signal deviation with increasing [Carbohydrate]) [3, 13]: Increases
λmax change [3, 13]: No change
carbohydrate can be detected and/or differentiated by the LCO ([3]; Cellulobiose): can be detected and/or differentiated
Gradient Parameters (gradient of regression line) [3, 14]: 493.6 ± 346.9
Quality of Gradient [3, 14]: Horizontal
Gradient Parameters (gradient of regression line) [3, 15]: 178.6 ± 35.1
Linear relationship [3, 15]: Significant
Quality of Gradient [3, 15]: Positive
Sensitivity ([3]; to amylose): Yes
Sensitivity ([3]; to cellulobiose): Yes
RFU change (Correlation analysis) ([4]; Glucose 5-0.019 mg/ml, 3 μM probe, probe-specific excitation λ, emission 545 nm): Decreases
RFU change (Signal deviation with increasing [Carbohydrate]) ([4]; Glucose 5-0.019 mg/ml, 3 μM probe, spectral analysis, Excitation 300-500, Emission 545): Decreases
carbohydrate can be detected and/or differentiated by the LCO ([4]; Glucose, conclusion from change in signal magnitude and/or shift in λmax): can be detected and/or differentiated
Gradient Parameters (gradient of regression line) [4, 16]: −116.0 ± 41.0
Linear relationship [4, 16]: Significant
Quality of Gradient [4, 16]: Negative
Sensitivity ([4]; to glucose): Yes
RFU change (Correlation analysis) ([5]; Sodium alginate 5-0.019 mg/ml, 3 μM probe, probe-specific excitation λ, emission 545 nm): Increases
RFU change (Signal deviation with increasing [Carbohydrate]) ([5]; Sodium alginate 5-0.019 mg/ml, 3 μM probe, spectral analysis, Excitation 300-500, Emission 545): Increases
Gradient Parameters (gradient of regression line) [5, 17]: 88.7 ± 62.0
Quality of Gradient [5, 17]: Horizontal
Sensitivity ([5]; to sodium alginate): No
RFU change (Correlation analysis) ([6]; Glycogen 5-0.019 mg/ml, 3 μM probe): Decreases
RFU change (Signal deviation with increasing [Carbohydrate]) [6, 18]: Decreases
λmax change [6, 18]: Redshift
carbohydrate can be detected and/or differentiated by the LCO ([6]; Glycogen): can be detected and/or differentiated
RFU change (Correlation analysis) ([6]; Heparin 5-0.019 mg/ml, 3 μM probe): Unclear
RFU change (Signal deviation with increasing [Carbohydrate]) ([6]; Heparin 5-0.019 mg/ml, 3 μM probe, spectral analysis, Excitation 300-500, Emission 545): Unclear
carbohydrate can be detected and/or differentiated by the LCO ([6]; Heparin): can be detected and/or differentiated
Gradient Parameters (gradient of regression line) ([6]; glycogen concentration vs RFU): −349.2 ± 96.7
Linear relationship ([6]; glycogen concentration vs RFU): Significant
Quality of Gradient ([6]; glycogen concentration vs RFU): Negative
Gradient Parameters (gradient of regression line) ([6]; heparin concentration vs RFU): −12.4 ± 108
Linear relationship ([6]; heparin concentration vs RFU): Not Significant
Quality of Gradient ([6]; heparin concentration vs RFU): Horizontal
Sensitivity ([6]; to glycogen): Yes
Sensitivity ([6]; to heparin): No
